# In publication PMC9197942 (Clinical cancer research : an official journal of the …, 2022):
# Read-outs that look alike come from different tables or passages of the source.
# Key:
# [1] = cited from earlier work
# patients with cGVHD [2] = assay: Pooled exposure-response analyses; design: species or system human; conditions: 186 patients
# OATP1B1 = conditions: cited from earlier work
# [3] = Reproductive toxicity studies; conditions: in vivo
# p-glycoprotein = conditions: cited from earlier work
# patients with cGVHD [4] = assay: Study KD025-208 dose-escalation trial; assay type: in vivo, human; conditions: 200 mg daily, 200 mg twice daily and 400 mg daily; 54 patients failing 1-3 prior lines
# CYP3A = conditions: cited from earlier work
# BCRP = conditions: cited from earlier work
# [5] = system: patients with chronic GVHD; assay: Study KD025-213 efficacy, belumosudil 200 mg daily cohort; assay type: in vivo, human; conditions: for Median time from first response to death or new systemic therapy: 49 responders; for Overall response rate (ORR) through Cycle 7 Day 1 (CR or PR): N=65, 2014 NIH consensus criteria, FDA adjudicated; for Patients with 7-point or greater decrease in Lee Symptom Scale summary score through Cycle 7 Day 1: N=65, exploratory; for Median duration of response: responders
# [6] = molecular target: human ether-à-go-go-related gene (hERG) current (Homo sapiens, UniProt Q12809); assay: hERG current in vitro; assay type: biochemical
# human ether-à-go-go-related gene (hERG) current, sequence (Q12809 whole entry): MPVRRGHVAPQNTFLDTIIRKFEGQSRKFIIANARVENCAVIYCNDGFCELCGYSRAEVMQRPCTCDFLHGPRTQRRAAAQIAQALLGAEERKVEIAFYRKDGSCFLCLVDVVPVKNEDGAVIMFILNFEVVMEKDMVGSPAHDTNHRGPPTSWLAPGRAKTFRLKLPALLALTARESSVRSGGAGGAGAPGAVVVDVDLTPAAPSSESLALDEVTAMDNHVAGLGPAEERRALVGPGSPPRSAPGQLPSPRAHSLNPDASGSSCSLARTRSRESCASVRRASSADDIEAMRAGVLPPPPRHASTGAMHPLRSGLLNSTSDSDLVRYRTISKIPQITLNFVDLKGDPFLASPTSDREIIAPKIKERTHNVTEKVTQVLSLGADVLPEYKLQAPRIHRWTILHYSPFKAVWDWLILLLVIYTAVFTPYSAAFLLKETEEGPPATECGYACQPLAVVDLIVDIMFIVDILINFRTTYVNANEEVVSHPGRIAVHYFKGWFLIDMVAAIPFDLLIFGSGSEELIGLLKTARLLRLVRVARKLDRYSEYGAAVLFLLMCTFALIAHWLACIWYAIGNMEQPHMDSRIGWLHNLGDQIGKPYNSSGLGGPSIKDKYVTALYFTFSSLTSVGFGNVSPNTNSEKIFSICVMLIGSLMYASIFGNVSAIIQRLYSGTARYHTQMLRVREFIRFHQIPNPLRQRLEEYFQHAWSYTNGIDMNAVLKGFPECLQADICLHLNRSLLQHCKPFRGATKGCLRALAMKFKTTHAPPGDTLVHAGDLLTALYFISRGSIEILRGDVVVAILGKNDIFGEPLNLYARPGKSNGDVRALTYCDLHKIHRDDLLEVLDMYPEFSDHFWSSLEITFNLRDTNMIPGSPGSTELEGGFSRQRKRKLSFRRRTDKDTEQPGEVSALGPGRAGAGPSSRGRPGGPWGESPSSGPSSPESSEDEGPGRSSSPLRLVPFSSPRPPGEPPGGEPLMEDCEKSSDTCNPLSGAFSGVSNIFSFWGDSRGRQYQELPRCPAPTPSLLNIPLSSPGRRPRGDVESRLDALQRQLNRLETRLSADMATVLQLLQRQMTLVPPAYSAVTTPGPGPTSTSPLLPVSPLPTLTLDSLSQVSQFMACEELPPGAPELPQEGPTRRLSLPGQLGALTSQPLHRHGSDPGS
# [7] = Population pharmacokinetics; design: species or system human; conditions: in comparison to healthy volunteers
# CYP1A2 = conditions: cited from earlier work
# Tissue distribution = conditions: in vivo
# [8] = system: adult patients with cGVHD; assay: Clinical safety, Studies KD025-208 and KD025-213, belumosudil 200 mg daily; assay type: in vivo, human
# [9] = Clinical pharmacokinetics of belumosudil; assay type: in vivo, human
# mTOR pathway = conditions: in vitro; cited from earlier work
# ROCK1 isoform = conditions: in vitro, compared with ROCK2; cited from earlier work
# CYP2C19 = conditions: cited from earlier work
# STAT3 = conditions: ex-vivo or in vitro; cited from earlier work
# animals = assay: Animal toxicology studies; assay type: in vivo
# UGT1A1 [10] = molecular target: T1, UGT1A1 (Homo sapiens, UniProt P22309); conditions: cited from earlier work
# T1 sequence (P22309 26-533): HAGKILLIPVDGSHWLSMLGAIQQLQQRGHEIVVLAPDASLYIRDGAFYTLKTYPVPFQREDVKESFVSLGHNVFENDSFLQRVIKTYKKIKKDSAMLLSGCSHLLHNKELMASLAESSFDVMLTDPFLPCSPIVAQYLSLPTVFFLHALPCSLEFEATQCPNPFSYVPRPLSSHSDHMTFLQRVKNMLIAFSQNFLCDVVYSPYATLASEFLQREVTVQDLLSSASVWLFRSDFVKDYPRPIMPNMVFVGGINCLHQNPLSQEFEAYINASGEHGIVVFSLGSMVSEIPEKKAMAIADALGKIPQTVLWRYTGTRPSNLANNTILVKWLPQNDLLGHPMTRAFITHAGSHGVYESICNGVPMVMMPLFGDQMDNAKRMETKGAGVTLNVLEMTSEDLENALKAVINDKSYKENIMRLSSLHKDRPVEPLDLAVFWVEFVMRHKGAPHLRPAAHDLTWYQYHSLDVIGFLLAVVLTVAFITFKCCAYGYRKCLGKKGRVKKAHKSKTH
# ROCK2 = ROCK2 (Homo sapiens, UniProt O75116); assay: ROCK2 inhibition; assay type: biochemical
# ROCK2, sequence (O75116 whole entry): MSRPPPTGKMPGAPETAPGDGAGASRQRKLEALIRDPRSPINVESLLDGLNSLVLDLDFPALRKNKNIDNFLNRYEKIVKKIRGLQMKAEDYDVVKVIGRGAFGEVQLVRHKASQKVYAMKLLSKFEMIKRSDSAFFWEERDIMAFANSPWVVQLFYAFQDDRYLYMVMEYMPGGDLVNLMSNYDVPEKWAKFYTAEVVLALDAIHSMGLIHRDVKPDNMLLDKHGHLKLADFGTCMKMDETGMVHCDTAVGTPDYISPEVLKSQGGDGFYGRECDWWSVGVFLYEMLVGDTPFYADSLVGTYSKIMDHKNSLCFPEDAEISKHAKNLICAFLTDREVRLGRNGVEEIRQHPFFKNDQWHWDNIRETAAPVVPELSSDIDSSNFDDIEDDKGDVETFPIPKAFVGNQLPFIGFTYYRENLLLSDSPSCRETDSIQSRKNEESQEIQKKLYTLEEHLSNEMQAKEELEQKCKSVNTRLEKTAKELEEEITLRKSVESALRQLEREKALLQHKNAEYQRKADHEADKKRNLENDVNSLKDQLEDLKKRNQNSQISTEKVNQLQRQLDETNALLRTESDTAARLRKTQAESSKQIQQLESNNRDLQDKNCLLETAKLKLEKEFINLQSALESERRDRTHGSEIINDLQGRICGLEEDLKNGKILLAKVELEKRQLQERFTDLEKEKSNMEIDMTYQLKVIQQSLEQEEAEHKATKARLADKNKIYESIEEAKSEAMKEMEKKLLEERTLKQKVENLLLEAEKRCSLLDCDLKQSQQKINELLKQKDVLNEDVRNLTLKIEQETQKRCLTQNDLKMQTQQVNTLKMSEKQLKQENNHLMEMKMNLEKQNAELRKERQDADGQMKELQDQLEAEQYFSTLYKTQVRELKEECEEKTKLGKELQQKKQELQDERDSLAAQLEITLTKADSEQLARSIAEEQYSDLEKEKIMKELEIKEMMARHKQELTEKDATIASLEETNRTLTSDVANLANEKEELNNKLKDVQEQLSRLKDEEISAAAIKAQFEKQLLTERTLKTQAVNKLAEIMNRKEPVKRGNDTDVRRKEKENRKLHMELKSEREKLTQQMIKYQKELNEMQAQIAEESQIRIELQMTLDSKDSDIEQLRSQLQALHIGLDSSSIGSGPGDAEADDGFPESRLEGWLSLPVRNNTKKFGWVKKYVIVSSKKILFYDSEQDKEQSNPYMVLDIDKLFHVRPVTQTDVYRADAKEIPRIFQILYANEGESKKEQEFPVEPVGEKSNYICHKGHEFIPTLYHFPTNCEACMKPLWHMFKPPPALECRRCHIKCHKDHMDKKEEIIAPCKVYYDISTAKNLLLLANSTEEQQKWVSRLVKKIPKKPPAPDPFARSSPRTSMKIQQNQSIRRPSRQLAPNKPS
# CYP2D6 = CYP2D6 (Homo sapiens, UniProt P10635); conditions: cited from earlier work
# CYP2D6, sequence (P10635 whole entry): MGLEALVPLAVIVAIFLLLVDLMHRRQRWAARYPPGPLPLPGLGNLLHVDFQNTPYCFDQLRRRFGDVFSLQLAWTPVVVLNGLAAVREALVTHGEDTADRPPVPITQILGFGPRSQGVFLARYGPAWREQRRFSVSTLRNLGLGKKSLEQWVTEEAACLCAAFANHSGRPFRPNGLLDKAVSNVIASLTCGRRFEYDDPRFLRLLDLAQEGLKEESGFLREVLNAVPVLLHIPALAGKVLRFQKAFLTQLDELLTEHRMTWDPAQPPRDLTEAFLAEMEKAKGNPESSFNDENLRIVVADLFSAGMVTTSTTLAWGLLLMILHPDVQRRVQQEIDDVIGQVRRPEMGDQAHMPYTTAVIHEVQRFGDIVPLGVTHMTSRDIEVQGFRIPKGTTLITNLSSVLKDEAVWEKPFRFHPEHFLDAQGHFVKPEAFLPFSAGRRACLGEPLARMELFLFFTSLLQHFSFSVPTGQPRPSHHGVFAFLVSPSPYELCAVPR
# dogs = assay: Safety pharmacology studies in dogs; assay type: in vivo, dog
# CYP3A4 = CYP3A4 (Homo sapiens, UniProt P08684); assay: In vitro metabolism; assay type: in vitro ADME
# CYP3A4, sequence (P08684 whole entry): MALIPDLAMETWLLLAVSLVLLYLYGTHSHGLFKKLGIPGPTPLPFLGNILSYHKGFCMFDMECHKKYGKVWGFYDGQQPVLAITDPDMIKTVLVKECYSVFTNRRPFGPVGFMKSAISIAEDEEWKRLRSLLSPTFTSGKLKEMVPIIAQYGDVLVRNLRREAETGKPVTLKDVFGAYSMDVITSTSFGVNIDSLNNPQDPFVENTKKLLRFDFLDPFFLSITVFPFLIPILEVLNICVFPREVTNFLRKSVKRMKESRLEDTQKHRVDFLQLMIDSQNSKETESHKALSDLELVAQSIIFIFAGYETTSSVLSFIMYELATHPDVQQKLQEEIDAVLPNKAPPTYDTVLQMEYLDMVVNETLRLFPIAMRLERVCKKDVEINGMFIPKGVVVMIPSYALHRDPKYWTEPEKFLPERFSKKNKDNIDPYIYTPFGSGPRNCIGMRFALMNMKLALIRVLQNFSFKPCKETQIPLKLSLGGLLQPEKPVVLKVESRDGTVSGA
# MRTF = conditions: ex-vivo or in vitro; cited from earlier work
# CYP2C8 = CYP2C8 (Homo sapiens, UniProt P10632); assay: In vitro metabolism; assay type: in vitro ADME
# CYP2C8, sequence (P10632 whole entry): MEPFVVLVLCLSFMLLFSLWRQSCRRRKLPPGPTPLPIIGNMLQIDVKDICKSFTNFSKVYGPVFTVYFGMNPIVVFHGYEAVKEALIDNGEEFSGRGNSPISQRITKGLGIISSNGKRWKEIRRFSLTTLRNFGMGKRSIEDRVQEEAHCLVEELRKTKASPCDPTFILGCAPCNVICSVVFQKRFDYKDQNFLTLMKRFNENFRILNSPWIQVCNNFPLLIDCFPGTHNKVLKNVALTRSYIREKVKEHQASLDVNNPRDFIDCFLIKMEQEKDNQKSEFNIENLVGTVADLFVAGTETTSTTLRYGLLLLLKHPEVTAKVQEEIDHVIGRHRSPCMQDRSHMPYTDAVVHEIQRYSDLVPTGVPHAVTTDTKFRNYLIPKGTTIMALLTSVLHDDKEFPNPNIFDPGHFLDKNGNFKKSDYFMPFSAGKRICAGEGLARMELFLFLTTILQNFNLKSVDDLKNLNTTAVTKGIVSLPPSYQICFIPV
# Photoabsorbance in vitro = assay type: physicochemical
# [11] = system: human peripheral blood mononuclear cells; conditions: CD3-CD28 stimulation of human PBMC, ex-vivo or in vitro; cited from earlier work
# cGVHD mouse models = conditions: cited from earlier work
# UGT1A1 [12] = molecular target: T1, UGT1A1; assay: UGT1A1 inhibition; assay type: in vitro ADME; conditions: at concentrations that could be achieved clinically
# [13] = with proton pump inhibitor rabeprazole
# [14] = with strong CYP3A inducer rifampicin
# [15] = N=65, through Cycle 7 Day 1, listed as belumosudil
smiles,measurement,setting,value
CC(C)NC(=O)COc1cccc(-c2nc(Nc3ccc4[nH]ncc4c3)c3ccccc3n2)c1 [Belumosudil],Reduction of belumosudil Cmax,[1]; [13],up to 87%
same,Reduction of belumosudil overall exposure,[1]; [13],up to 80%
same,Reduction of belumosudil Cmax,[1]; [14],approximately 60%
same,Reduction of belumosudil overall exposure,[1]; [14],approximately 72%
same,Relationship of response with exposure,patients with cGVHD [2],no relationship
same,OATP1B1 inhibition,OATP1B1,inhibit
same,Embryo-fetal toxicity,[3],embryo-fetal toxicity
same,Male fertility,[3],impaired male fertility
same,p-glycoprotein inhibition,p-glycoprotein,inhibit
same,Activity in cGVHD,patients with cGVHD [4],appeared to be active
same,Effect on CYP3A,CYP3A,little effect
same,BCRP inhibition,BCRP,inhibit
same,Median time from first response to death or new systemic therapy,[5],Not estimable
same,Median time from first response to death or new systemic therapy,[5]; listed as belumosudil,not reached
same,Overall response rate (ORR) through Cycle 7 Day 1 (CR or PR),[5],49 (75%) (63% - 85%)
same,Overall response rate (ORR) through Cycle 7 Day 1 (CR or PR),[5]; listed as belumosudil,75%
same,Patients with 7-point or greater decrease in Lee Symptom Scale summary score through Cycle 7 Day 1,[5],(52%) (40% - 65%)
same,Patients with 7-point or greater decrease in Lee Symptom Scale summary score through Cycle 7 Day 1,[5]; listed as belumosudil,52%
same,Complete Response (CR),"[5]; N=65, through Cycle 7 Day 1",4 (6%)
same,Partial Response (PR),"[5]; N=65, through Cycle 7 Day 1",45 (69%)
same,Complete Response (CR),[5]; [15],6%
same,Partial Response (PR),[5]; [15],69%
same,Median duration of response,[5],1.9 months (1.2-2.9 months)
same,Median duration of response,[5]; listed as belumosudil,1.9 months
same,hERG current,[6],blocked
same,Effect of a diagnosis of GVHD on clearance,[7],decreased clearance
same,CYP1A2 inhibition,CYP1A2,inhibit
same,Tissue distribution,Tissue distribution,distributed to photosensitive areas such as skin and uveal tract
same,Incidence of Viral infection,"[8]; Grades ≥ 3, 200 mg daily, n=83",4%
same,Adverse reactions leading to dose interruption,"[8]; human, in vivo",29%
same,Dose interruption due to diarrhea,"[8]; human, in vivo",4%
same,Dose interruption due to infections,"[8]; human, in vivo",11%
same,Delay of Tmax with food,[9]; administration with food,0.5 h
same,Increase of AUC with food,[9]; administration with food,2 times
same,Increase of Cmax with food,[9]; administration with food,2.2 times
same,Excretion in feces unchanged,"[9]; human, in vivo",30%
same,Tmax,"[9]; human, in vivo, oral",1.26 h
same,mTOR pathway inhibition,mTOR pathway,inhibited
same,ROCK1 isoform inhibition,ROCK1 isoform,with less potency
same,CYP2C19 inhibition,CYP2C19,inhibit
same,STAT3 phosphorylation and transcriptional activity,STAT3,inhibited
same,Target organs of toxicity,animals,"toxicities were observed in the gastrointestinal tract, liver, kidney, hemolymphoid system, and reproductive system"
same,UGT1A1 inhibition,UGT1A1 [10],inhibit
same,ROCK2 inhibition,ROCK2,inhibitor
same,CYP2D6 inhibition,CYP2D6,inhibit
same,Effect on blood pressure,dogs,lowering of the blood pressure
same,Metabolism by CYP3A4,CYP3A4,metabolized primarily
same,MRTF-mediated gene expression,MRTF,inhibited
same,Metabolism by CYP2C8,CYP2C8,to a lesser extent
same,Photoabsorbance,Photoabsorbance in vitro,observed
same,Secretion of IL-21 and IL-17,[11],inhibited
same,cGVHD-related clinical and histological abnormality scores in the lung and skin,cGVHD mouse models,improvement
same,UGT1A1 inhibition,UGT1A1 [12],inhibited
NC(=O)COc1cccc(-c2nc(Nc3ccc4[nH]ncc4c3)c3ccccc3n2)c1 [KD025m1],ROCK2 inhibition,ROCK2,inhibit
O=C(O)COc1cccc(-c2nc(Nc3ccc4[nH]ncc4c3)c3ccccc3n2)c1 [KD025m2],ROCK2 inhibition,ROCK2,inhibit
